For series [1] the following is noted: 15° C.; cited from earlier work.
Series [2] is described as follows: Determination of the dissolution time in 10 L tap water, neither stirred nor moved. The format is physicochemical. The following applies: not stirred or moved. The protocol: The mixture was neither stirred nor moved. After 3 minutes there was no solid mixture at the bottom of the beaker.
A beaker with 10 L tap water was provided and 3 g (25.3 mmol) guanidinoacetic acid (GAA, powder, purchased from Gendone, China) was added. The powder sank to the bottom of the beaker. The mixture was not stirred or moved. After 4 days, no solid material was recognizable any more at the bottom of the beaker.

These results are taken from patent US20260240200A1, “COMPOSITION COMPRISING AN N-GUANYLAMINO ACID FOR DRINKING WATER APPLICATION” (Evonik Operations GmbH, priority 2023, published 2026).

Regarding `N=C(N)NCC(=O)O` [guanidinoacetic acid], the solubility in water in series [1] was 1 g in 278 ml water. The “dissolution time (no solid material recognizable at the bottom of the beaker)” value in series [2] is recorded as no more than 4 days.
